{"source": "PubChem BioAssay (NCI)", "assay_in_all_cases": "DTP human tumour cell line panel, 48 h", "key": {"[1]": {"test_system": "MDA-MB-468 breast"}, "[2]": {"test_system": "OVCAR-3 ovarian"}, "[3]": {"test_system": "RXF 393 renal"}, "[4]": {"test_system": "SF-268 CNS"}, "[5]": {"test_system": "SK-MEL-2 melanoma"}, "[6]": {"test_system": "SF-539 CNS"}, "[7]": {"test_system": "LOX IMVI melanoma"}, "[8]": {"test_system": "EKVX NSCLC"}, "[9]": {"test_system": "OVCAR-5 ovarian"}, "[10]": {"test_system": "SK-MEL-28 melanoma"}, "[11]": {"test_system": "NCI-H460 lung"}, "[12]": {"test_system": "SN12C renal"}, "[13]": {"test_system": "HT29 colon"}, "[14]": {"test_system": "NCI/ADR-RES ovarian"}, "[15]": {"test_system": "UO-31 renal"}, "[16]": {"test_system": "MDA-MB-435"}, "[17]": {"test_system": "SNB-19 CNS"}, "[18]": {"test_system": "SK-OV-3 ovarian"}, "[19]": {"test_system": "DU-145 prostate"}, "[20]": {"test_system": "MDA-MB-231 breast"}, "[21]": {"test_system": "ACHN renal"}, "[22]": {"test_system": "HL-60(TB) leukemia"}, "[23]": {"test_system": "UACC-257 melanoma"}, "[24]": {"test_system": "HS 578T breast"}, "[25]": {"test_system": "IGROV1 ovarian"}, "[26]": {"test_system": "K-562 leukemia"}, "[27]": {"test_system": "A498 renal"}, "[28]": {"test_system": "MOLT-4 leukemia"}, "[29]": {"test_system": "NCI-H23 lung"}, "[30]": {"test_system": "MALME-3M melanoma"}, "[31]": {"test_system": "CAKI-1 renal"}, "[32]": {"test_system": "CCRF-CEM leukemia"}, "[33]": {"test_system": "SK-MEL-5 melanoma"}, "[34]": {"test_system": "NCI-H522 lung"}, "[35]": {"test_system": "BT-549 breast"}, "[36]": {"test_system": "SW-620 colon"}, "[37]": {"test_system": "HCC-2998 colon"}, "[38]": {"test_system": "MCF7 breast"}, "[39]": {"test_system": "SNB-75 CNS"}, "[40]": {"test_system": "UACC-62 melanoma"}, "[41]": {"test_system": "HCT-15 colon"}, "[42]": {"test_system": "SF-295 CNS"}, "[43]": {"test_system": "HOP-92 NSCLC"}, "[44]": {"test_system": "SR leukemia"}, "[45]": {"test_system": "TK-10 renal"}}, "note": "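All cell lines were grown in 96-well plates and treated with compound for 48 hours. GI50 = concentration required for 50% inhibition of growth. At the TGI there is no net growth.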", "data": [{"smiles": "[O]=[Sn]([CH]1CCCCC1)[CH]1CCCCC1", "values": [{"measurement": "GI50", "setting": "[1]", "result": 97.7, "unit": "nM"}, {"measurement": "TGI", "setting": "[1]", "result": 250, "unit": "nM"}]}, {"smiles": "COc1cc(C(=O)c2cnc(-c3c[nH]c4cccc(C)c34)[nH]2)cc(OC)c1OC", "values": [{"measurement": "GI50", "setting": "[1]", "result": 2.64, "unit": "nM"}]}, {"smiles": "CCn1c(-c2nonc2N)nc2ccccc21", "values": [{"measurement": "GI50", "setting": "[1]", "result": "> 14900", "unit": "nM"}, {"measurement": "TGI", "setting": "[1]", "result": "> 25000", "unit": "nM"}]}, {"smiles": "O=C(Nc1cccc(-n2ccc3c(NC(=O)c4ccccc4)ncnc32)c1)Nc1ccc(Cl)c(C(F)(F)F)c1", "values": [{"measurement": "GI50", "setting": "[1]", "result": 1480, "unit": "nM"}, {"measurement": "TGI", "setting": "[1]", "result": 6060, "unit": "nM"}]}, {"smiles": "O=c1c(I)c[nH]cc1I", "values": [{"measurement": "GI50", "setting": "[1]", "result": "> 100000", "unit": "nM"}, {"measurement": "TGI", "setting": "[1]", "result": "> 100000", "unit": "nM"}]}, {"smiles": "CC(=O)Nc1ccc(-c2cn(-c3cccc(C(=O)Nc4cc(CN5CCOCC5)cc(C(F)(F)F)c4)c3)nn2)cn1", "values": [{"measurement": "GI50", "setting": "[2]", "result": 2230, "unit": "nM"}, {"measurement": "TGI", "setting": "[2]", "result": 3990, "unit": "nM"}, {"measurement": "GI50", "setting": "[3]", "result": 1870, "unit": "nM"}, {"measurement": "TGI", "setting": "[3]", "result": 3360, "unit": "nM"}, {"measurement": "GI50", "setting": "[4]", "result": 2580, "unit": "nM"}, {"measurement": "TGI", "setting": "[4]", "result": 5580, "unit": "nM"}, {"measurement": "GI50", "setting": "[5]", "result": 2130, "unit": "nM"}, {"measurement": "TGI", "setting": "[5]", "result": 5440, "unit": "nM"}, {"measurement": "GI50", "setting": "[6]", "result": 1480, "unit": "nM"}, {"measurement": "TGI", "setting": "[6]", "result": 2820, "unit": "nM"}, {"measurement": "GI50", "setting": "[7]", "result": 1420, "unit": "nM"}, {"measurement": "TGI", "setting": "[7]", "result": 2800, "unit": "nM"}, {"measurement": "GI50", "setting": "[8]", "result": 2440, "unit": "nM"}, {"measurement": "TGI", "setting": "[8]", "result": 6130, "unit": "nM"}, {"measurement": "GI50", "setting": "[9]", "result": 1880, "unit": "nM"}, {"measurement": "TGI", "setting": "[9]", "result": 4990, "unit": "nM"}, {"measurement": "GI50", "setting": "[10]", "result": 1280, "unit": "nM"}, {"measurement": "TGI", "setting": "[10]", "result": 2570, "unit": "nM"}, {"measurement": "GI50", "setting": "[11]", "result": 2340, "unit": "nM"}, {"measurement": "TGI", "setting": "[11]", "result": 5110, "unit": "nM"}, {"measurement": "GI50", "setting": "[12]", "result": 1650, "unit": "nM"}, {"measurement": "TGI", "setting": "[12]", "result": 3080, "unit": "nM"}, {"measurement": "GI50", "setting": "[13]", "result": 2000, "unit": "nM"}, {"measurement": "TGI", "setting": "[13]", "result": 5970, "unit": "nM"}, {"measurement": "GI50", "setting": "[14]", "result": 9400, "unit": "nM"}, {"measurement": "TGI", "setting": "[14]", "result": "> 100000", "unit": "nM"}, {"measurement": "GI50", "setting": "[15]", "result": 1920, "unit": "nM"}, {"measurement": "TGI", "setting": "[15]", "result": 3800, "unit": "nM"}, {"measurement": "GI50", "setting": "[16]", "result": 1580, "unit": "nM"}, {"measurement": "TGI", "setting": "[16]", "result": 3290, "unit": "nM"}, {"measurement": "GI50", "setting": "[17]", "result": 2230, "unit": "nM"}, {"measurement": "TGI", "setting": "[17]", "result": 4360, "unit": "nM"}, {"measurement": "GI50", "setting": "[18]", "result": 2130, "unit": "nM"}, {"measurement": "TGI", "setting": "[18]", "result": 3930, "unit": "nM"}, {"measurement": "GI50", "setting": "[19]", "result": 2400, "unit": "nM"}, {"measurement": "TGI", "setting": "[19]", "result": 5110, "unit": "nM"}, {"measurement": "GI50", "setting": "[20]", "result": 1230, "unit": "nM"}, {"measurement": "TGI", "setting": "[20]", "result": 2590, "unit": "nM"}, {"measurement": "GI50", "setting": "[21]", "result": 1770, "unit": "nM"}, {"measurement": "TGI", "setting": "[21]", "result": 3260, "unit": "nM"}, {"measurement": "GI50", "setting": "[22]", "result": 1330, "unit": "nM"}, {"measurement": "TGI", "setting": "[22]", "result": 5470, "unit": "nM"}, {"measurement": "GI50", "setting": "[23]", "result": 1630, "unit": "nM"}, {"measurement": "TGI", "setting": "[23]", "result": 3570, "unit": "nM"}, {"measurement": "GI50", "setting": "[24]", "result": 1900, "unit": "nM"}, {"measurement": "TGI", "setting": "[24]", "result": 5040, "unit": "nM"}, {"measurement": "GI50", "setting": "[25]", "result": 2190, "unit": "nM"}, {"measurement": "TGI", "setting": "[25]", "result": 5120, "unit": "nM"}, {"measurement": "GI50", "setting": "[26]", "result": 178, "unit": "nM"}, {"measurement": "TGI", "setting": "[26]", "result": "> 100000", "unit": "nM"}, {"measurement": "GI50", "setting": "[27]", "result": 2410, "unit": "nM"}, {"measurement": "TGI", "setting": "[27]", "result": 4570, "unit": "nM"}, {"measurement": "GI50", "setting": "[1]", "result": 1650, "unit": "nM"}, {"measurement": "TGI", "setting": "[1]", "result": 3100, "unit": "nM"}, {"measurement": "GI50", "setting": "[28]", "result": 3120, "unit": "nM"}, {"measurement": "TGI", "setting": "[28]", "result": 16700, "unit": "nM"}, {"measurement": "GI50", "setting": "[29]", "result": 1630, "unit": "nM"}, {"measurement": "TGI", "setting": "[29]", "result": 3080, "unit": "nM"}, {"measurement": "GI50", "setting": "[30]", "result": 477, "unit": "nM"}, {"measurement": "TGI", "setting": "[30]", "result": 1820, "unit": "nM"}, {"measurement": "GI50", "setting": "[31]", "result": 1910, "unit": "nM"}, {"measurement": "TGI", "setting": "[31]", "result": 3480, "unit": "nM"}, {"measurement": "GI50", "setting": "[32]", "result": 3340, "unit": "nM"}, {"measurement": "TGI", "setting": "[32]", "result": "> 100000", "unit": "nM"}, {"measurement": "GI50", "setting": "[33]", "result": 1570, "unit": "nM"}, {"measurement": "TGI", "setting": "[33]", "result": 2930, "unit": "nM"}, {"measurement": "GI50", "setting": "[34]", "result": 2040, "unit": "nM"}, {"measurement": "TGI", "setting": "[34]", "result": 4820, "unit": "nM"}, {"measurement": "GI50", "setting": "[35]", "result": 2590, "unit": "nM"}, {"measurement": "TGI", "setting": "[35]", "result": 4440, "unit": "nM"}, {"measurement": "GI50", "setting": "[36]", "result": 1940, "unit": "nM"}, {"measurement": "TGI", "setting": "[36]", "result": 3830, "unit": "nM"}, {"measurement": "GI50", "setting": "[37]", "result": 1940, "unit": "nM"}, {"measurement": "TGI", "setting": "[37]", "result": 3500, "unit": "nM"}, {"measurement": "GI50", "setting": "[38]", "result": 1720, "unit": "nM"}, {"measurement": "TGI", "setting": "[38]", "result": 3350, "unit": "nM"}, {"measurement": "GI50", "setting": "[39]", "result": 1780, "unit": "nM"}, {"measurement": "TGI", "setting": "[39]", "result": 3280, "unit": "nM"}, {"measurement": "GI50", "setting": "[40]", "result": 1290, "unit": "nM"}, {"measurement": "TGI", "setting": "[40]", "result": 2660, "unit": "nM"}, {"measurement": "GI50", "setting": "[41]", "result": 2030, "unit": "nM"}, {"measurement": "TGI", "setting": "[41]", "result": 4110, "unit": "nM"}, {"measurement": "GI50", "setting": "[42]", "result": 1590, "unit": "nM"}, {"measurement": "TGI", "setting": "[42]", "result": 2940, "unit": "nM"}, {"measurement": "GI50", "setting": "[43]", "result": 1950, "unit": "nM"}, {"measurement": "TGI", "setting": "[43]", "result": 4620, "unit": "nM"}, {"measurement": "GI50", "setting": "[44]", "result": "> 100000", "unit": "nM"}, {"measurement": "TGI", "setting": "[44]", "result": "> 100000", "unit": "nM"}, {"measurement": "GI50", "setting": "[45]", "result": 433, "unit": "nM"}, {"measurement": "TGI", "setting": "[45]", "result": 1460, "unit": "nM"}]}]}
